ChEMBL document CHEMBL4229520, “Design and synthesis of C10 modified and ring-truncated canthin-6-one analogues as effective membrane-active antibacterial agents” (Bioorg Med Chem Lett, 2018)
Converted amounts (≈) assume the structure as drawn. The source made the active and inactive calls. The rule behind the calls is not given here.

What was measured:
[1] = system: Staphylococcus aureus; test: Antibacterial activity against methicillin-resistant Staphylococcus aureus after 12 to 14 hrs; assay type: functional
[2] = system: Bacillus subtilis; test: Antibacterial activity against Bacillus subtilis after 12 to 14 hrs; assay type: functional
[3] = system: Ralstonia solanacearum; test: Antibacterial activity against Ralstonia solanacearum after 12 to 14 hrs; assay type: functional
[4] = system: Bacillus cereus; test: Antibacterial activity against Bacillus cereus after 12 to 14 hrs; assay type: functional
[5] = system: Ralstonia solanacearum; test: Potency index, ratio of propineb MIC to test compound MIC for Ralstonia solanacearum; assay type: functional
[6] = system: Staphylococcus aureus; test: Antibacterial activity against Staphylococcus aureus after 12 to 14 hrs; assay type: functional
[7] = system: Radish; test: Allelopathic activity against Raphanus sativus assessed as germination rate at 4 ug/ml after 48 hrs (reference value: 92 +/- 0.47%); assay type: organism-based; conditions: in vivo
[8] = system: Triticum aestivum; test: Allelopathic activity against Triticum aestivum assessed as germination rate at 4 ug/ml after 48 hrs (reference value: 91 +/- 0.42%); assay type: organism-based; conditions: in vivo
[9] = Selectivity index, ratio of IC50 for human SGC7901 cells to MIC for Bacillus cereus; assay type: toxicity; conditions: read-out: Selectivity Index
[10] = Cytotoxicity against human A549 cells assessed as cell viability at 4 ug/ml after 48 hrs by MTT assay relative to control; assay type: cell-based; conditions: read-out: Activity
[11] = system: Staphylococcus aureus; test: Induction of membrane permeabilization in Staphylococcus aureus at MIC by beta-galactosidase leakage assay; assay type: functional, organism-based
[12] = Selectivity index, ratio of IC50 for human HeLa cells to MIC for Bacillus cereus; assay type: toxicity; conditions: read-out: Selectivity Index
[13] = Cytotoxicity against human L02 cells assessed as cell viability at 4 ug/ml after 48 hrs by MTT assay relative to control; assay type: cell-based; conditions: read-out: Activity
[14] = system: Staphylococcus aureus; test: Induction of morphological changes in Staphylococcus aureus assessed as cell shrinkage at 1 ug/ml after 1 hr by SEM analysis; assay type: functional, organism-based
[15] = system: L02; test: Cytotoxicity against human L02 cells assessed as decrease in cell viability after 48 hrs by MTT assay; assay type: cell-based; conditions: L02, 48 h
[16] = system: Staphylococcus aureus; test: Potency index, ratio of fosfomycin sodium MIC to test compound MIC for methicillin-resistant Staphylococcus aureus; assay type: functional
[17] = Cytotoxicity against human HeLa cells assessed as cell viability at 4 ug/ml after 48 hrs by MTT assay relative to control; assay type: cell-based; conditions: read-out: Activity
[18] = system: Staphylococcus aureus; test: Induction of membrane damage in Staphylococcus aureus at 1 ug/ml after 1 hr by Hoechst/propidium iodide staining-based fluorescence microscopic method; assay type: functional, organism-based
[19] = Selectivity index, ratio of IC50 for human SGC7901 cells to MIC for Ralstonia solanacearum; assay type: toxicity; conditions: read-out: Selectivity Index
[20] = Selectivity index, ratio of IC50 for human HeLa cells to MIC for Ralstonia solanacearum; assay type: toxicity; conditions: read-out: Selectivity Index
[21] = Selectivity index, ratio of IC50 for human A549 cells to MIC for Ralstonia solanacearum; assay type: toxicity; conditions: read-out: Selectivity Index
[22] = system: Ralstonia solanacearum; test: Protection against Ralstonia solanacearum-induced infection in eggplant leaf at 4 ug/ml after 3 days relative to control; assay type: functional
[23] = system: A549; test: Cytotoxicity against human A549 cells assessed as decrease in cell viability after 48 hrs by MTT assay; assay type: cell-based; conditions: A549, 48 h
[24] = Selectivity index, ratio of IC50 for human L02 cells to MIC for Bacillus cereus; assay type: toxicity; conditions: read-out: Selectivity Index
[25] = Selectivity index, ratio of IC50 for human A549 cells to MIC for Bacillus cereus; assay type: toxicity; conditions: read-out: Selectivity Index
[26] = system: Staphylococcus aureus; test: Potency index, ratio of cefotaxime sodium MIC to test compound MIC for methicillin-resistant Staphylococcus aureus; assay type: functional
[27] = Selectivity index, ratio of IC50 for human L02 cells to MIC for Ralstonia solanacearum; assay type: toxicity; conditions: read-out: Selectivity Index
[28] = system: SGC-7901; test: Cytotoxicity against human SGC7901 cells assessed as decrease in cell viability after 48 hrs by MTT assay; assay type: cell-based; conditions: SGC-7901, 48 h
[29] = Cytotoxicity against human SGC7901 cells assessed as cell viability at 4 ug/ml after 48 hrs by MTT assay relative to control; assay type: cell-based, SGC-7901; conditions: read-out: Activity
[30] = system: HeLa; test: Cytotoxicity against human HeLa cells assessed as decrease in cell viability after 48 hrs by MTT assay; assay type: cell-based

## COc1ccc2c(c1)c1ccnc3c1n2CCC3
[1]
  MIC: 32 µg/mL (≈ 134 µM)
[2]
  MIC: > 64 µg/mL
[3]
  MIC: 4 µg/mL (≈ 16.8 µM)
[4]
  MIC: 32 µg/mL (≈ 134 µM)
[5]
  Ratio: 2
[6]
  MIC: > 64 µg/mL

## c1ccc2c(c1)[nH]c1cnccc12 [NORHARMANE]
[1]
  MIC: > 64 µg/mL
[2]
  MIC: > 64 µg/mL
[3]
  MIC: > 64 µg/mL
[4]
  MIC: > 64 µg/mL
[6]
  MIC: > 64 µg/mL

## CO/N=C(\C(=O)N[C@@H]1C(=O)N2C(C(=O)[O-])=C(COC(C)=O)CS[C@H]12)c1csc(N)n1.[Na+] [CEFOTAXIME SODIUM]
[1]
  MIC: 16 µg/mL
[2]
  MIC: 2 µg/mL
[3]
  MIC: 2 µg/mL
[4]
  MIC: 16 µg/mL
[6]
  MIC: 1 µg/mL

## O=C1CCC2(SCCS2)c2cc3ccccc3n21
[1]
  MIC: > 64 µg/mL
[2]
  MIC: > 64 µg/mL
[3]
  MIC: > 64 µg/mL
[4]
  MIC: > 64 µg/mL
[6]
  MIC: 32 µg/mL (≈ 116 µM)

## COc1ccc2[nH]c3c(C=O)nccc3c2c1
[2]
  MIC: > 64 µg/mL
[3]
  MIC: > 64 µg/mL
[4]
  MIC: 32 µg/mL (≈ 141 µM)
[6]
  MIC: > 64 µg/mL

## COc1ccc2c(c1)c1cc[n+]([O-])c3ccc(=O)n2c13
[2]
  MIC: > 64 µg/mL
[3]
  MIC: > 64 µg/mL
[4]
  MIC: > 64 µg/mL
[6]
  MIC: > 64 µg/mL

## O=C1CCC(=O)n2c1cc1ccccc12
[1]
  MIC: 4 µg/mL (≈ 20.1 µM)
[2]
  MIC: 4 µg/mL (≈ 20.1 µM)
[3]
  MIC: 8 µg/mL (≈ 40.2 µM)
[4]
  MIC: 16 µg/mL (≈ 80.3 µM)
[6]
  MIC: 8 µg/mL (≈ 40.2 µM)

## COc1ccc2c(c1)c1ccnc3c1n2CN(Cc1ccccc1)C3
[2]
  MIC: 64 µg/mL (≈ 194 µM)
[3]
  MIC: > 64 µg/mL
[4]
  MIC: 64 µg/mL (≈ 194 µM)
[6]
  MIC: > 64 µg/mL

## COc1ccc2c(c1)c1c3n2C(=O)CCC3N(Cc2ccccc2)CC1 (centres undefined)
[1]
  MIC: 64 µg/mL (≈ 185 µM)
[2]
  MIC: > 64 µg/mL
[3]
  MIC: > 64 µg/mL
[4]
  MIC: > 64 µg/mL
[6]
  MIC: 64 µg/mL (≈ 185 µM)

## O=C1CCC(=O)n2ccc3cccc1c32
[2]
  MIC: > 64 µg/mL
[3]
  MIC: > 64 µg/mL
[4]
  MIC: > 64 µg/mL
[6]
  MIC: > 64 µg/mL

## COc1ccc2c(c1)c1ccnc3ccc(=O)n2c31
[1]
  MIC: 64 µg/mL (≈ 256 µM)
[2]
  MIC: 8 µg/mL (≈ 32 µM)
[3]
  MIC: 16 µg/mL (≈ 63.9 µM)
[4]
  MIC: 4 µg/mL (≈ 16 µM)
[6]
  MIC: > 64 µg/mL

## C[C@@H]1O[C@@H]1P(=O)([O-])[O-].[Na+].[Na+] [PHOSPHOMYCIN DISODIUM]
[1]
  MIC: 8 µg/mL
[2]
  MIC: 2 µg/mL
[3]
  MIC: 8 µg/mL
[4]
  MIC: 4 µg/mL
[6]
  MIC: 16 µg/mL

## C#CCOc1ccc2c(c1)c1ccnc3ccc(=O)n2c31
[1]
  MIC: > 64 µg/mL
[2]
  MIC: > 64 µg/mL
[3]
  MIC: 8 µg/mL (≈ 29.2 µM)
[4]
  MIC: 8 µg/mL (≈ 29.2 µM)
[6]
  MIC: 64 µg/mL (≈ 233 µM)

## COc1ccc2[nH]c3cnccc3c2c1
[1]
  MIC: > 64 µg/mL
[2]
  MIC: > 64 µg/mL
[3]
  MIC: > 64 µg/mL
[4]
  MIC: > 64 µg/mL
[6]
  MIC: > 64 µg/mL

## COc1ccc2c(c1)c1c3n2C(=O)CCC3NCC1 (centres undefined)
[2]
  MIC: > 64 µg/mL
[3]
  MIC: > 64 µg/mL
[4]
  MIC: > 64 µg/mL
[6]
  MIC: > 64 µg/mL

## COc1ccc2[nH]c3c(C(OC)OC)nccc3c2c1
[2]
  MIC: > 64 µg/mL
[3]
  MIC: > 64 µg/mL
[4]
  MIC: > 64 µg/mL
[6]
  MIC: > 64 µg/mL

## O=C(O)CNCP(=O)(O)O [GLYPHOSATE]
[7]
  Activity: 78%
[8]
  Activity: 75%

## O=c1ccc2nccc3c4cc(O)ccc4n1c23
[2]
  MIC: > 64 µg/mL
[3]
  MIC: > 64 µg/mL
[4]
  MIC: 16 µg/mL (≈ 67.7 µM)
[6]
  MIC: > 64 µg/mL

## O=C1CCCC2Cc3ccccc3N12 (centres undefined)
[2]
  MIC: > 64 µg/mL
[3]
  MIC: > 64 µg/mL
[4]
  MIC: > 64 µg/mL
[6]
  MIC: > 64 µg/mL

## O=c1ccc2nccc3c4cc(OCc5cn(Cc6ccccc6)nn5)ccc4n1c23
[2]
  MIC: > 64 µg/mL
[4]
  MIC: > 64 µg/mL

## O=C1CCC(O)c2cc3ccccc3n21 (centres undefined)
[1]
  MIC: 32 µg/mL (≈ 159 µM)
[2]
  MIC: 16 µg/mL (≈ 79.5 µM)
[3]
  MIC: 32 µg/mL (≈ 159 µM)
[4]
  MIC: 16 µg/mL (≈ 79.5 µM)
[6]
  MIC: 8 µg/mL (≈ 39.8 µM)

## O=C1CCCc2cc3ccccc3n21
[2]
  MIC: > 64 µg/mL
[3]
  MIC: > 64 µg/mL
[4]
  MIC: > 64 µg/mL
[6]
  MIC: > 64 µg/mL

## CCc1cc2nccc3c4cc(OC)ccc4n(c1=O)c23
[2]
  MIC: > 64 µg/mL
[3]
  MIC: > 64 µg/mL
[4]
  MIC: > 64 µg/mL
[6]
  MIC: > 64 µg/mL

## O=C1C=CC(=O)n2c1cc1ccccc12
[9]
  selectivity ratio: 4.9
[10]
  viability at 48 h, 4 ug/ml: 103%
[11]
  Activity: Active
[12]
  selectivity ratio: 4.1
[1]
  MIC: 2 µg/mL (≈ 10.1 µM)
[13]
  viability at 48 h, 4 ug/ml: 89%
[14]
  Activity: Active
[15]
  IC50: 79.5 µM
[16]
  Ratio: 4
[17]
  viability at 48 h, 4 ug/ml: 91%
[7]
  Activity: 100%
[18]
  Activity: Active
[2]
  MIC: 2 µg/mL (≈ 10.1 µM)
[3]
  MIC: 4 µg/mL (≈ 20.3 µM)
[8]
  Activity: 97%
[19]
  selectivity ratio: 4
[4]
  MIC: 4 µg/mL (≈ 20.3 µM)
[20]
  selectivity ratio: 4.4
[21]
  selectivity ratio: 4.4
[22]
  Efficacy: 68%
[23]
  IC50: 97.1 µM
[24]
  selectivity ratio: 4.9
[25]
  selectivity ratio: 4.1
[26]
  Ratio: 8
[27]
  selectivity ratio: 4
[28]
  IC50: 88.6 µM
[29]
  viability at 48 h, 4 ug/ml: 96%
[6]
  MIC: 2 µg/mL (≈ 10.1 µM)
[30]
  IC50: 82.4 µM
